Results as given in patent US20250034170A1, “SMALL MOLECULE MODULATORS OF GLUCOCEREBROSIDASE ACTIVITY AND USES THEREOF” (Vanqua Bio, Inc., priority 2021, published 2025).

Target: T1, GCase (Homo sapiens, UniProt P04062)
T1 construct: endogenous in cells; host or cells: HeLa cells
T1 sequence (P04062 40-536): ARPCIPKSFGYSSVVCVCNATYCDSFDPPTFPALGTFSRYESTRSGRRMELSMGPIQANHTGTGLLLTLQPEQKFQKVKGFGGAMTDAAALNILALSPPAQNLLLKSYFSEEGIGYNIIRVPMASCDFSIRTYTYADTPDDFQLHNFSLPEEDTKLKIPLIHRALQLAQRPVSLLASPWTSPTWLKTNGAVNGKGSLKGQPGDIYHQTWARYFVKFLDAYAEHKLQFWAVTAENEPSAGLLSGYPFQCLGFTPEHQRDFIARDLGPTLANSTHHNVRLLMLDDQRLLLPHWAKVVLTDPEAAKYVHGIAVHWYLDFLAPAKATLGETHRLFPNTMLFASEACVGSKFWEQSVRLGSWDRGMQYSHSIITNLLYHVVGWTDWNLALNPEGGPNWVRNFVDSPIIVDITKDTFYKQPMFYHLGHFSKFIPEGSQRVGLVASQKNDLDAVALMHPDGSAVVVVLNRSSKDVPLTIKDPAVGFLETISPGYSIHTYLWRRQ
Assay: activation of GCase in a live cell PFB assay in HELA cells
Assay type: cell-based
Settings: EC50 given as range classes
Experimental: Exemplary compounds were evaluated for activation of GCase in a live cell PFB assay in HELA cells (essentially as described in Ysselstein et al., “LRRK2 kinase activity regulates lysosomal glucocerebrosidase in neurons derived from Parkinson's disease patients” Nature Communications (2019) 10:5570). […] EC50 ranges: A: <10 μM; B: >10-50 μM; C: >50-100 μM; D: >100 μM.

`O=C1CCC2(CCN(c3cnc4cnn(CC(F)F)c4n3)C2)CN1c1ccc(C(F)(F)F)cn1` (centres unmarked) [Cmpd 792] and `O=C1CCC2(CCN(c3cnc4cnn(CC(F)F)c4n3)C2)CN1c1ccc(C(F)(F)F)nc1` (centres unmarked) [Cmpd 790] cannot be ordered by EC50: under 10 µM for the first, under 10 µM for the second.

First: Cn1c(N2CCC3(CN(c4ccc(C(F)(F)F)cn4)C3)C2)nc2c(cnn2CC(F)F)c1=O [Cmpd 996]
Second: Cc1nn(CC(F)F)c2nc(N3CCC4(CN(c5ccnc(C(F)(F)F)c5)C4)C3)n(C)c(=O)c12 [Cmpd 994]
The EC50 of the first is higher: 10 to 50 µM for the first, under 10 µM for the second. The second is the more potent here.

First: Cc1cccc(S(=O)(=O)N2CC3(CCN(c4cnc5cnn(CC(F)F)c5n4)C3)C2)c1 [Cmpd 417]
Second: FC(F)Cn1ncc2ncc(N3CCC4(CCN(c5ccc(C(F)(F)F)cn5)CC4)CC3)nc21 [Cmpd 810]
The EC50 of the first is lower: under 10 µM for the first, 10 to 50 µM for the second. The first is the more potent here.

Same assay, conditions: activation of GCase, EC50 ranges

Compared with `O=C1N(c2cnc3cnn(CC(F)F)c3n2)CCC12CCN(c1ccc(C(F)(F)F)nc1)C2` (centres unmarked) [Cmpd 519], `FC(F)Cn1ncc2ncc(N3CCC4(CC3)CN(c3ccnc(C(F)(F)F)c3)C4)nc21` [Compound 68, 7-[1-(2,2-difluoroethyl)-1H-pyrazolo[3,4-b]pyrazin-6-yl]-2-[2-(trifluoromethyl)pyridin-4-yl]-2,7-diazaspiro[3.5]nonane] is lower in EC50: 10 to 50 µM for the first, under 10 µM for the second.

`FC(F)(F)Cn1ncc2ncc(N3CCC4(CCN(c5cnc(C(F)(F)F)nc5)C4)C3)nc21` (centres unmarked) [Cmpd 531] and `FC(F)(F)Cn1ncc2ncc(N3CC4(CCN(c5ccnc(C(F)(F)F)c5)C4)C3)nc21` [Cmpd 350] cannot be ordered by EC50: under 10 µM for the first, under 10 µM for the second.

Compared with `CCC1N(c2ccc(C(F)(F)F)nc2)C(=O)CC12CCN(c1cnc3cnn(C4COC4)c3n1)CC2` (centres unmarked) [Cmpd 858], `CCOc1nn(C2COC2)c2nc(N3CCC4(CC3)CC(=O)N(c3ccc(C(F)(F)F)nc3)C4)cnc12` [Cmpd 951] is lower in EC50: 10 to 50 µM for the first, under 10 µM for the second.

`FC(F)(F)COc1cncc(N2CCC3(CCN(c4ccc(C(F)(F)F)nc4)C3)CC2)n1` [Cmpd 243] and `FC(F)(F)c1cc(N2CCC3(CCN(c4cnc5cnn(C6COC6)c5n4)CC3)C2)cnn1` [Cmpd 1055] cannot be ordered by EC50: under 10 µM for the first, under 10 µM for the second.

`Cc1cc(N2CC3(CCN(c4cnc5c(C)nn(C6COC6)c5n4)C3)C2)nc(C)n1` [Cmpd 645] and `Cc1nn(C2COC2)c2nc(N3CC4(CC(=O)N(c5ccnc(C(F)(F)F)c5)C4)C3)cnc12` [Cmpd 349] fall in the same range of EC50: 10 to 50 µM for the first, 10 to 50 µM for the second.

`Cc1nc(N2CC3(CCN(c4ncc5c(C)nn(C)c5n4)C3)C2)cc(C(F)(F)F)n1` [Cmpd 648] and `FC(F)(F)c1cc(N2CC3(CCN(c4cnc5cnn(C[C@@H]6CCO6)c5n4)C3)C2)ccn1` [Cmpd 933] cannot be ordered by EC50: under 10 µM for the first, under 10 µM for the second.

`O=C1N(c2cc(C(F)(F)F)ccn2)C(=O)C2(CCN(c3cnc4cnn(CC(F)F)c4n3)CC2)N1Cc1c(F)cccc1F` [Cmpd 715] and `CC1(C)C(=O)N(c2cc(C(F)(F)F)ccn2)CC12CCN(c1cnc3cnn(CC(F)F)c3n1)CC2` [Compound 73, 8-(1-(2,2-difluoroethyl)-1H-pyrazolo[3,4-b]pyrazin-6-yl)-4,4-dimethyl-2-(4-(trifluoromethyl)pyridin-2-yl)-2,8-diazaspiro[4.5]decan-3-one] cannot be ordered by EC50: under 10 µM for the first, under 10 µM for the second.

First: O=C1CC2(CCN(c3cnc4cnn(CC(F)F)c4n3)CC2)CN1Cc1cncc(F)c1 [Cmpd 334]
Second: O=C1CC2(CCN(c3ncc4cnn(CC(F)F)c4n3)CC2)CN1c1cncc(C(F)(F)F)n1 [Cmpd 288]
The EC50 of the first is higher: 50 to 100 µM for the first, 10 to 50 µM for the second. The second is the more potent here.

First: FC(F)Cn1ncc2ncc(N3CCCC4(C3)CN(c3cnccc3C(F)(F)F)C4)nc21 [Compound 17, 6-[1-(2,2-difluoroethyl)-1H-pyrazolo[3,4-b]pyrazin-6-yl]-2-[4-(trifluoromethyl)pyridin-3-yl]-2,6-diazaspiro[3.5]nonane]
Second: CC1CN(c2cnc3cnn(CC(F)F)c3n2)CCC12CCN(c1cc(C(F)(F)F)ccn1)C2 (centres unmarked) [Cmpd 746]
The EC50 of the first is higher: 10 to 50 µM for the first, under 10 µM for the second. The second is the more potent here.

`CCN1C(=O)N(c2ccc(C(F)(F)F)nc2)C(=O)C12CCN(c1ncc3c(C)nn(CC(F)F)c3n1)CC2` [Cmpd 874] and `Cc1nn(CC(F)F)c2nc(N3CCC4(CC3)CCN(c3nccc(C(F)(F)F)n3)C4=O)cnc12` [Cmpd 281] cannot be ordered by EC50: under 10 µM for the first, under 10 µM for the second.
